Square brackets hold non-standard residues; d marks the D form. Peptide text beside a SMILES is read from it. * marks the point of attachment. Nle = CCCC[C@H](N)C(=O)O; Boc = CC(C)(C)OC(=O)*

This assay concerns the target T1, Cholecystokinin receptor type A (Cavia porcellus, UniProt Q63931).
T1 sequence (Q63931 whole entry): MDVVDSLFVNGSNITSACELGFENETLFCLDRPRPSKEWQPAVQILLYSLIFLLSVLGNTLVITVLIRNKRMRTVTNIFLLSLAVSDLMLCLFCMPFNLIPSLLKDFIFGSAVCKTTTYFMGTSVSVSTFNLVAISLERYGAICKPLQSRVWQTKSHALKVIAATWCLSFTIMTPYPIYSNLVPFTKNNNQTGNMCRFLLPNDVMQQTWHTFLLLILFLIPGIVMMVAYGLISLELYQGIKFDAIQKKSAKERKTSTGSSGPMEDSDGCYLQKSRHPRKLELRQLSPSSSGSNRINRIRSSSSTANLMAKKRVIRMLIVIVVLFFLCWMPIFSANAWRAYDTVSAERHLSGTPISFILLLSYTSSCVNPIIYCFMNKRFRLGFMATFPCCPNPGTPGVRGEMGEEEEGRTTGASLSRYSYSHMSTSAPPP
The experiment in a line: Compound was tested for its inhibitory activity in pancreatic cholecystokinin type A receptor in guinea pig.
The compound `CCC[C@@H]1CCN(C(=O)[C@H](Cc2c[nH]c3ccccc23)NC(=O)OC(C)(C)C)[C@@H]1C(=O)N[C@@H](CC(=O)O)C(=O)N[C@@H](Cc1ccccc1)C(N)=O` yielded a half-maximal inhibitory concentration (IC50) of 2.7 µM.

Take `C[C@H](NC(=O)[C@H](Cc1c[nH]c2ccccc12)NC(=O)OC(C)(C)C)C(=O)N[C@@H](CC(=O)O)C(=O)N[C@@H](Cc1ccccc1)C(N)=O` (Boc-WADF-NH2): the midpoint of inhibition, the IC50, lay at 10.3 µM.

Compound `CC(C)(C)OC(=O)N[C@@H](Cc1c[nH]c2ccccc12)C(=O)N1CCC[C@H]1C(=O)N[C@@H](CC(=O)O)C(=O)N[C@@H](Cc1ccccc1)C(N)=O` (Boc-WPDF-NH2) yielded a half-maximal inhibitory concentration (IC50) of 2.1 µM.

`CCCC[C@H](NC(=O)[C@H](Cc1c[nH]c2ccccc12)NC(=O)OC(C)(C)C)C(=O)N[C@@H](CC(=O)O)C(=O)N[C@@H](Cc1ccccc1)C(N)=O` (Boc-W[Nle]DF-NH2) showed an IC50 of 4 µM.

What is called IC50 is the concentration that gives 50% inhibition. A high value points to weaker potency.

Values taken from ChEMBL document CHEMBL1125749, “trans-3-n-propyl-L-proline is a highly favorable, conformationally restricted replacement for methionine in the C-terminal tetrapeptide of cholecystokinin. Stereoselective synthesis of 3-allyl- and 3-n-propyl-L-proline derivatives from 4-hydroxy-L-proline” (J Med Chem, 1991).
